In US20240239804A1, “FUROINDAZOLE DERIVATIVES AS ANTAGONISTS OR INHIBITORS OF GPR84” (Bayer Aktiengesellschaft, priority 2021, published 2024):

Biological target: T1, human GPR84 receptor (Homo sapiens, UniProt Q9NQS5)
T1 construct: frozen aliquots prepared by acCELLerate; host or cells: CHO-K1
Assay: cAMP HTRF assay for identification of cellular GPR84 antagonists
Format: cell-based
Details: CHO-K1 cells stably expressing human GPR84; Forskolin plus agonist 6-OAU; cAMP HTRF readout; average or median values
Source text: cAMP HTRF® Assay for Identification of Cellular GPR84 Antagonists
By using a Homogenous Time-Resolved Fluorescence (HTRF®) based assay (#62AM5PEJ, Cisbio, Condolet, France) the inhibition of the Gi-coupled GPR84 receptor can be detected. CHO-K1 cells stably expressing human GPR84 receptor (purchased from DiscoveRx, now Eurofins) were used and treated with Forskolin (F6886, Sigma, Germany) to stimulate membrane adenylyl cyclases and thereby unspecific cAMP formation. Activation of the Gi-coupled GPR84 by a natural or small molecule agonist (e.g. 6-n-octyl aminouracile, inhouse) results in inhibition of cellular cAMP formation which can be released again by antagonists to this receptor. Detection and quantification of cellular cAMP levels in this HTRF assay is achieved by interaction between a fluorescent cAMP tracer (cAMP-d2) and an Eu-cryptate labelled anti-cAMP antibody. Following excitation at 337 nm this pairing allows for the generation of a fluorescence resonance energy transfer (FRET) between the partners and results in FRET induced emissions at 665 nm and 620 nm, the latter representing background signal by Eu-cryptate labelled anti-cAMP antibody. Maximal signal is obtained in the absence of any cellular cAMP (no competition for the binding of the tracer to the antibody). Given the combination of the Gi coupling properties of GPR84 and the competitive nature of the detection system agonist treatment should result in an increase in the HTRF signal due to lowered cAMP levels. Any signal decrease in the presence of Forskolin, agonist and compound are indicative of antagonist mediated abrogation of GPR84 signalling.
For the assay, frozen aliquots of CHO-K1 cells expressing hGPR84 (prepared by acCELLerate, Hamburg, Germany) were thawed and a cell suspension (1.67E+06 cells/mL) in assay media (Ham's F12 Nutrient Mix, Thermo Fisher Scientific, Waltham, USA; 5% fetal calf serum, Biomol, Hamburg, Germany) containing cAMP-d2 (dilution 1:20, supplied with the kit #62AM5PEJ, Cisbio, Condolet, France) was prepared. After recovery of cells for 20 minutes at 37° C., 3 μL/well cell suspension including cAMP-d2 were added to a pre-dispensed assay plate (Greiner Bio-One, Kremsmuenster, Austria) containing 50 nl/well test compound in 100% DMSO or 100% DMSO as control. This was followed by a 30 minute incubation step at room temperature. The stimulation time was started by addition of 2 μL/well assay media containing 2.5×EC80 agonist 6-OAU and 2.5×EC90 Forskolin (negative control: 2.5×EC90 Forskolin in assay media) and was continued for 30 minutes at room temperature. The reaction was stopped by addition of 3 μL/well lysis buffer containing cAMP Eu-Cryptate antibody (dilution 1:20) (both supplied with the kit #62AM5PEJ, Cisbio, Condolet, France). To enable complete lysis, plates were incubated for 60 minutes at room temperature before measurement in an HTRF reader, e.g. a PHERAstar (BMG Labtech, Ortenberg, Germany).
From the fluorescence emissions at 665 nm (FRET) and at 620 nm (background signal of Eu-cryptate) the ratio (emission at 665 nm divided by emission at 620 nm×10000) was calculated and the data were normalized (reaction without test compound, only 100% DMSO=0% inhibition; all other assay components except agonist=100% inhibition). For dose response testing on the same microtiter plate, compounds were tested at 11 different concentrations in the range of 20 μM to 0.07 nM (20 μM, 5.7 μM, 1.6 μM, 0.47 μM, 0.13 μM, 38 nM, 11 nM, 3.1 nM, 0.89 nM, 0.25 and 0.07 nM; dilution series prepared before the assay at the level of the 100-fold conc. stock solutions by serial 1:3.5 dilutions in 100% DMSO) in duplicate values for each concentration. IC50 values were calculated by 4-parameter fitting using a commercial software package (Genedata Screener, Basel, Switzerland).
Examples were tested in selected biological assays one or more times. […]

T1 sequence (Q9NQS5 whole entry): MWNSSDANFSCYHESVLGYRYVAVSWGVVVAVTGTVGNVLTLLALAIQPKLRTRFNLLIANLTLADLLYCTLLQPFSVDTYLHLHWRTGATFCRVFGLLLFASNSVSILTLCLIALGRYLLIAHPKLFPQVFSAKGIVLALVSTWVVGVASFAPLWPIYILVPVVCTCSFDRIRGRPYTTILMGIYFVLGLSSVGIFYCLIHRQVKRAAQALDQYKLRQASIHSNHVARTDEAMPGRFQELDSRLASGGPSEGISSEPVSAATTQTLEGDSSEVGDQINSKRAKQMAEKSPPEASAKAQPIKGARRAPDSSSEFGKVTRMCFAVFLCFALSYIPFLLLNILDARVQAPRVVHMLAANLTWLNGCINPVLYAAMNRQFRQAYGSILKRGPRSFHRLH

| IC50 [nM] | Structure (SMILES) |
| --- | --- |
| 3040 | Cc1c(C(=O)NCc2nccn2C)oc2c1-c1nn(Cc3ccc(Cl)cc3)cc1CC2 [Example 53, 2-[(4-chlorophenyl)methyl]-8-methyl-N-[(1-methyl-1H-imidazol-2-yl)methyl]-4,5-dihydro-2H-furo[2,3-g]indazole-7-carboxamide] |
| 6680 | Cc1c(C(=O)NCCCO)oc2c1-c1nn(Cc3ccc(Cl)cc3)cc1CC2 [Example 64, 2-[(4-chlorophenyl)methyl]-N-(3-hydroxypropyl)-8-methyl-4,5-dihydro-2H-furo[2,3-g]indazole-7-carboxamide] |
| 2960 | Cc1c(C(=O)NCC2CCOCC2)oc2c1-c1nn(Cc3ccc(Cl)cc3)cc1CC2 [Example 52, 2-[(4-chlorophenyl)methyl]-8-methyl-N-[(oxan-4-yl)methyl]-4,5-dihydro-2H-furo[2,3-g]indazole-7-carboxamide] |
| 2220 | Cc1ccccc1Cn1cc2c(n1)-c1c(oc(C(=O)NCC3CCCN3C(=O)OC(C)(C)C)c1C)CC2 (racemic) [Example 6, tert-butyl (2RS)-2-[{{8-methyl-2-[(2-methylphenyl)methyl]-4,5-dihydro-2H-furo[2,3-g]indazole-7-carbonyl}amino)methyl]pyrrolidine-1-carboxylate] |
| 7450 | Cc1c(C(=O)NCC(F)F)oc2c1-c1nn(Cc3ccc(Cl)cc3)cc1CC2 [Example 65, 2-[(4-chlorophenyl)methyl]-N-(2,2-difluoroethyl)-8-methyl-4,5-dihydro-2H-furo[2,3-g]indazole-7-carboxamide] |
| 800 | CC(=O)Nc1ccc(CNC(=O)c2oc3c(c2C)-c2nn(Cc4ccc(Cl)cc4)cc2CC3)cc1 [Example 43, N-[(4-acetamidophenyl)methyl]-2-[(4-chlorophenyl)methyl]-8-methyl-4,5-dihydro-2H-furo[2,3-g]indazole-7-carboxamide] |
| 1190 | Cc1c(C(=O)NCC(=O)N(C)C)oc2c1-c1nn(Cc3ccc(Cl)cc3)cc1CC2 [Example 36, 2-[(4-chlorophenyl)methyl]-N-[2-(dimethylamino)-2-oxoethyl]-8-methyl-4,5-dihydro-2H-furo[2,3-g]indazole-7-carboxamide] |
| 4880 | Cc1c(C(=O)NCCC(N)=O)oc2c1-c1nn(Cc3ccc(Cl)cc3)cc1CC2 [Example 56, N-(3-amino-3-oxopropyl)-2-[(4-chlorophenyl)methyl]-8-methyl-4,5-dihydro-2H-furo[2,3-g]indazole-7-carboxamide] |
| 1140 | Cc1c(C(=O)NCC(=O)N2CCCC2)oc2c1-c1nn(Cc3ccc(Cl)cc3)cc1CC2 [Example 34, 2-[(4-chlorophenyl)methyl]-8-methyl-N-[2-oxo-2-(pyrrolidin-1-yl)ethyl]-4,5-dihydro-2H-furo[2,3-g]indazole-7-carboxamide] |
| 500 | CCNC(=O)CNC(=O)c1oc2c(c1C)-c1nn(Cc3ccc(Cl)cc3)cc1CC2 [Example 30, 2-[(4-chlorophenyl)methyl]-N-[2-(ethylamino)-2-oxoethyl]-8-methyl-4,5-dihydro-2H-furo[2,3-g]indazole-7-carboxamide] |
| 17000 | Cc1c(C(=O)N(C)CCO)oc2c1-c1nn(Cc3ccc(Cl)cc3)cc1CC2 [Example 85, 2-[(4-chlorophenyl)methyl]-N-(2-hydroxyethyl)-N,8-dimethyl-4,5-dihydro-2H-furo[2,3-g]indazole-7-carboxamide] |
| 9570 | Cc1c(C(=O)N2CCC(O)CC2)oc2c1-c1nn(Cc3ccc(Cl)cc3)cc1CC2 [Example 71, {2-[(4-chlorophenyl)methyl]-8-methyl-4,5-dihydro-2H-furo[2,3-g]indazol-7-yl}(4-hydroxypiperidin-1-yl)methanone] |
| 14300 | Cc1c(C(=O)NCc2ncc[nH]2)oc2c1-c1nn(Cc3ccc(Cl)cc3)cc1CC2 [Example 78, 2-[(4-chlorophenyl)methyl]-N-[(1H-imidazol-2-yl)methyl]-8-methyl-4,5-dihydro-2H-furo[2,3-g]indazole-7-carboxamide] |
| 520 | Cc1c(C(=O)NCc2cc[nH]n2)oc2c1-c1nn(Cc3ccc(Cl)cc3)cc1CC2 [Example 41, 2-[(4-chlorophenyl)methyl]-8-methyl-N-[(1H-pyrazol-3-yl)methyl]-4,5-dihydro-2H-furo[2,3-g]indazole-7-carboxamide] |
| 320 | Cc1c(C(=O)NCCN2CCN(C)CC2)oc2c1-c1nn(Cc3cccc(Cl)c3)cc1CC2 [Example 17, 2-[(3-chlorophenyl)methyl]-8-methyl-N-[2-(4-methylpiperazin-1-yl)ethyl]-4,5-dihydro-2H-furo[2,3-g]indazole-7-carboxamide] |
| 1010 | Cc1c(C(=O)NCc2ccno2)oc2c1-c1nn(Cc3ccc(Cl)cc3)cc1CC2 [Example 28, 2-[(4-chlorophenyl)methyl]-8-methyl-N-[(1,2-oxazol-5-yl)methyl]-4,5-dihydro-2H-furo[2,3-g]indazole-7-carboxamide] |
| 9960 | Cc1c(C(=O)N(C)Cc2ccco2)oc2c1-c1nn(Cc3ccc(Cl)cc3)cc1CC2 [Example 72, 2-[(4-chlorophenyl)methyl]-N-[(furan-2-yl)methyl]-N,8-dimethyl-4,5-dihydro-2H-furo[2,3-g]indazole-7-carboxamide] |
| 680 | Cc1ccccc1Cn1cc2c(n1)-c1c(oc(C(=O)NCC3CCCN3)c1C)CC2 (racemic) [Example 7, 8-methyl-2-[(2-methylphenyl)methyl]-N-{[(2RS)-pyrrolidin-2-yl]methyl}-4,5-dihydro-2H-furo[2,3-g]indazole-7-carboxamide] |
| 360 | Cc1c(C(=O)NCCN2CCCCC2)oc2c1-c1nn(Cc3ccccc3Cl)cc1CC2 [Example 13, 2-[(2-chlorophenyl)methyl]-8-methyl-N-[2-(piperidin-1-yl)ethyl]-4,5-dihydro-2H-furo[2,3-g]indazole-7-carboxamide] |
| 7 | Cc1ccc(Cn2cc3c(n2)-c2c(oc(C(=O)NC[C@@H]4COCCO4)c2C)CC3)cc1 [Example 2, N-{[(2R)-1,4-dioxan-2-yl]methyl}-8-methyl-2-[(4-methylphenyl)methyl]-4,5-dihydro-2H-furo[2,3-g]indazole-7-carboxamide] |
| 160 | Cc1c(C(=O)NCC2CCCO2)oc2c1-c1nn(Cc3ccc(F)cc3Cl)cc1CC2 (racemic) [Example 92, 2-[(2-chloro-4-fluorophenyl)methyl]-8-methyl-N-[(2RS)-tetrahydrofuran-2-ylmethyl]-4,5-dihydro-2H-furo[2,3-g]indazole-7-carboxamide] |
| 12300 | Cc1c(C(=O)N2CC(C)OC(C)C2)oc2c1-c1nn(Cc3ccc(Cl)cc3)cc1CC2 (stereo not drawn) [Example 75, {2-[(4-chlorophenyl)methyl]-8-methyl-4,5-dihydro-2H-furo[2,3-g]indazol-7-yl}(2,6-dimethylmorpholin-4-yl)methanone] |
| 16400 | Cc1c(C(=O)N(C)Cc2ccnn2C)oc2c1-c1nn(Cc3ccc(Cl)cc3)cc1CC2 [Example 84, 2-[(4-chlorophenyl)methyl]-N,8-dimethyl-N-[(1-methyl-1H-pyrazol-5-yl)methyl]-4,5-dihydro-2H-furo[2,3-g]indazole-7-carboxamide] |
| 5640 | Cc1c(C(=O)NCC(C)(C)O)oc2c1-c1nn(Cc3ccc(Cl)cc3)cc1CC2 [Example 60, 2-[(4-chlorophenyl)methyl]-N-(2-hydroxy-2-methylpropyl)-8-methyl-4,5-dihydro-2H-furo[2,3-g]indazole-7-carboxamide] |
